{"source": "patent US8192962B2", "about": "“Processes for detecting toxic substances” (Daikin Industries, Ltd., priority 2001, dated 2012)", "system": "Energy system protein genes", "test": "DNA chip mRNA expression in yeast, energy system protein genes (Table 4)", "format": "cell-based, Saccharomyces cerevisiae S288C", "procedure,_shortened": "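Value is the scanned fluorescence intensity ratio of exposed versus chemical-free cells. Log-phase S288C yeast in YPD at 25° C. received one toxic substance for two hours, dosed to slow growth without killing; Cy3/Cy5-labeled cDNA from oligo-dT-purified mRNA was hybridized to a whole-genome chip at 65° C.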", "data": [{"molecule": "S=C([S-])NCCNC(=S)[S-].[Zn+2]", "note": "[(11), zinc N,N′-ethylenebis(dithiocarbamate)]", "values": [{"measurement": "The level of expressed mRNA in the presence of chemical substance/The level of expressed mRNA in the absence of chemical substance", "setting": "yeast gene YJL166W, cells incubated two hours with the chemical substance", "value": 1.4}, {"measurement": "The level of expressed mRNA in the presence of chemical substance/The level of expressed mRNA in the absence of chemical substance", "setting": "yeast gene YJL216C, cells incubated two hours with the chemical substance", "value": 1.1}, {"measurement": "The level of expressed mRNA in the presence of chemical substance/The level of expressed mRNA in the absence of chemical substance", "setting": "yeast gene YJR009C", "value": 1.1}, {"measurement": "The level of expressed mRNA in the presence of chemical substance/The level of expressed mRNA in the absence of chemical substance", "setting": "yeast gene YJR048W", "value": 1.0}, {"measurement": "The level of expressed mRNA in the presence of chemical substance/The level of expressed mRNA in the absence of chemical substance", "setting": "yeast gene YJR121W, cells incubated two hours with the chemical substance", "value": 0.9}, {"measurement": "The level of expressed mRNA in the presence of chemical substance/The level of expressed mRNA in the absence of chemical substance", "setting": "yeast gene YJR155W", "value": 15.4}, {"measurement": "The level of expressed mRNA in the presence of chemical substance/The level of expressed mRNA in the absence of chemical substance", "setting": "yeast gene YKL016C, cells incubated two hours with the chemical substance", "value": 1.3}, {"measurement": "The level of expressed mRNA in the presence of chemical substance/The level of expressed mRNA in the absence of chemical substance", "setting": "yeast gene YKL060C, cells incubated two hours with the chemical substance", "value": 2.1}, {"measurement": "The level of expressed mRNA in the presence of chemical substance/The level of expressed mRNA in the absence of chemical substance", "setting": "yeast gene YKL141W, cells incubated two hours with the chemical substance", "value": 1.2}, {"measurement": "The level of expressed mRNA in the presence of chemical substance/The level of expressed mRNA in the absence of chemical substance", "setting": "yeast gene YKL148C, cells incubated two hours with the chemical substance", "value": 1.5}, {"measurement": "The level of expressed mRNA in the presence of chemical substance/The level of expressed mRNA in the absence of chemical substance", "setting": "yeast gene YKR009C, cells incubated two hours with the chemical substance", "value": 1.2}, {"measurement": "The level of expressed mRNA in the presence of chemical substance/The level of expressed mRNA in the absence of chemical substance", "setting": "yeast gene YKR058W, cells incubated two hours with the chemical substance, 25° C., YPD medium", "value": 1.5}, {"measurement": "The level of expressed mRNA in the presence of chemical substance/The level of expressed mRNA in the absence of chemical substance", "setting": "yeast gene YKR097W", "value": 0.8}, {"measurement": "The level of expressed mRNA in the presence of chemical substance/The level of expressed mRNA in the absence of chemical substance", "setting": "yeast gene YLL041C, cells incubated two hours with the chemical substance", "value": 1.3}, {"measurement": "The level of expressed mRNA in the presence of chemical substance/The level of expressed mRNA in the absence of chemical substance", "setting": "yeast gene YLR038C, cells incubated two hours with the chemical substance", "value": 1.4}, {"measurement": "The level of expressed mRNA in the presence of chemical substance/The level of expressed mRNA in the absence of chemical substance", "setting": "yeast gene YLR044C, cells incubated two hours with the chemical substance", "value": 1.1}, {"measurement": "The level of expressed mRNA in the presence of chemical substance/The level of expressed mRNA in the absence of chemical substance", "setting": "yeast gene YLR134W, cells incubated two hours with the chemical substance", "value": 1.1}, {"measurement": "The level of expressed mRNA in the presence of chemical substance/The level of expressed mRNA in the absence of chemical substance", "setting": "yeast gene YLR258W, cells incubated two hours with the chemical substance", "value": 1.2}, {"measurement": "The level of expressed mRNA in the presence of chemical substance/The level of expressed mRNA in the absence of chemical substance", "setting": "yeast gene YLR284C, cells incubated two hours with the chemical substance", "value": 1.5}, {"measurement": "The level of expressed mRNA in the presence of chemical substance/The level of expressed mRNA in the absence of chemical substance", "setting": "yeast gene YLR295C, cells incubated two hours with the chemical substance, 25° C., YPD medium", "value": 1.3}, {"measurement": "The level of expressed mRNA in the presence of chemical substance/The level of expressed mRNA in the absence of chemical substance", "setting": "yeast gene YLR304C, cells incubated two hours with the chemical substance", "value": 1.6}, {"measurement": "The level of expressed mRNA in the presence of chemical substance/The level of expressed mRNA in the absence of chemical substance", "setting": "yeast gene YLR345W", "value": 2.5}, {"measurement": "The level of expressed mRNA in the presence of chemical substance/The level of expressed mRNA in the absence of chemical substance", "setting": "yeast gene YLR354C, cells incubated two hours with the chemical substance", "value": 1.7}, {"measurement": "The level of expressed mRNA in the presence of chemical substance/The level of expressed mRNA in the absence of chemical substance", "setting": "yeast gene YLR377C, cells incubated two hours with the chemical substance", "value": 0.6}, {"measurement": "The level of expressed mRNA in the presence of chemical substance/The level of expressed mRNA in the absence of chemical substance", "setting": "yeast gene YLR395C, cells incubated two hours with the chemical substance", "value": 1.5}, {"measurement": "The level of expressed mRNA in the presence of chemical substance/The level of expressed mRNA in the absence of chemical substance", "setting": "yeast gene YML087C", "value": 1.6}, {"measurement": "The level of expressed mRNA in the presence of chemical substance/The level of expressed mRNA in the absence of chemical substance", "setting": "yeast gene YML120C, cells incubated two hours with the chemical substance", "value": 1.3}, {"measurement": "The level of expressed mRNA in the presence of chemical substance/The level of expressed mRNA in the absence of chemical substance", "setting": "yeast gene YML129C, cells incubated two hours with the chemical substance", "value": 1.2}, {"measurement": "The level of expressed mRNA in the presence of chemical substance/The level of expressed mRNA in the absence of chemical substance", "setting": "yeast gene YMR073C, cells incubated two hours with the chemical substance", "value": 0.9}, {"measurement": "The level of expressed mRNA in the presence of chemical substance/The level of expressed mRNA in the absence of chemical substance", "setting": "yeast gene YMR118C", "value": 0.7}, {"measurement": "The level of expressed mRNA in the presence of chemical substance/The level of expressed mRNA in the absence of chemical substance", "setting": "yeast gene YMR205C, cells incubated two hours with the chemical substance", "value": 1.0}, {"measurement": "The level of expressed mRNA in the presence of chemical substance/The level of expressed mRNA in the absence of chemical substance", "setting": "yeast gene YMR261C, cells incubated two hours with the chemical substance", "value": 0.8}, {"measurement": "The level of expressed mRNA in the presence of chemical substance/The level of expressed mRNA in the absence of chemical substance", "setting": "yeast gene YMR267W, cells incubated two hours with the chemical substance, 25° C., YPD medium", "value": 1.0}, {"measurement": "The level of expressed mRNA in the presence of chemical substance/The level of expressed mRNA in the absence of chemical substance", "setting": "yeast gene YMR323W, cells incubated two hours with the chemical substance", "value": 2.5}, {"measurement": "The level of expressed mRNA in the presence of chemical substance/The level of expressed mRNA in the absence of chemical substance", "setting": "yeast gene YNL071W", "value": 1.6}, {"measurement": "The level of expressed mRNA in the presence of chemical substance/The level of expressed mRNA in the absence of chemical substance", "setting": "yeast gene YNL202W, cells incubated two hours with the chemical substance", "value": 1.2}, {"measurement": "The level of expressed mRNA in the presence of chemical substance/The level of expressed mRNA in the absence of chemical substance", "setting": "yeast gene YNL241C", "value": 3.0}, {"measurement": "The level of expressed mRNA in the presence of chemical substance/The level of expressed mRNA in the absence of chemical substance", "setting": "yeast gene YNL331C", "value": 21.8}, {"measurement": "The level of expressed mRNA in the presence of chemical substance/The level of expressed mRNA in the absence of chemical substance", "setting": "yeast gene YOL086C, cells incubated two hours with the chemical substance", "value": 2.6}, {"measurement": "The level of expressed mRNA in the presence of chemical substance/The level of expressed mRNA in the absence of chemical substance", "setting": "yeast gene YOL165C", "value": 17.6}, {"measurement": "The level of expressed mRNA in the presence of chemical substance/The level of expressed mRNA in the absence of chemical substance", "setting": "yeast gene YOR142W, cells incubated two hours with the chemical substance", "value": 1.5}, {"measurement": "The level of expressed mRNA in the presence of chemical substance/The level of expressed mRNA in the absence of chemical substance", "setting": "yeast gene YOR178C, cells incubated two hours with the chemical substance", "value": 4.1}, {"measurement": "The level of expressed mRNA in the presence of chemical substance/The level of expressed mRNA in the absence of chemical substance", "setting": "yeast gene YOR388C, cells incubated two hours with the chemical substance", "value": 1.3}, {"measurement": "The level of expressed mRNA in the presence of chemical substance/The level of expressed mRNA in the absence of chemical substance", "setting": "yeast gene YPL031C, cells incubated two hours with the chemical substance", "value": 1.4}, {"measurement": "The level of expressed mRNA in the presence of chemical substance/The level of expressed mRNA in the absence of chemical substance", "setting": "yeast gene YPL061W, cells incubated two hours with the chemical substance", "value": 1.1}, {"measurement": "The level of expressed mRNA in the presence of chemical substance/The level of expressed mRNA in the absence of chemical substance", "setting": "yeast gene YPL088W", "value": 1.1}, {"measurement": "The level of expressed mRNA in the presence of chemical substance/The level of expressed mRNA in the absence of chemical substance", "setting": "yeast gene YPL171C", "value": 37.0}, {"measurement": "The level of expressed mRNA in the presence of chemical substance/The level of expressed mRNA in the absence of chemical substance", "setting": "yeast gene YPL240C", "value": 1.0}, {"measurement": "The level of expressed mRNA in the presence of chemical substance/The level of expressed mRNA in the absence of chemical substance", "setting": "yeast gene YPL262W, cells incubated two hours with the chemical substance", "value": 1.4}, {"measurement": "The level of expressed mRNA in the presence of chemical substance/The level of expressed mRNA in the absence of chemical substance", "setting": "yeast gene YPL275W, cells incubated two hours with the chemical substance", "value": 0.9}, {"measurement": "The level of expressed mRNA in the presence of chemical substance/The level of expressed mRNA in the absence of chemical substance", "setting": "yeast gene YPL276W, cells incubated two hours with the chemical substance", "value": "−0.4"}, {"measurement": "The level of expressed mRNA in the presence of chemical substance/The level of expressed mRNA in the absence of chemical substance", "setting": "yeast gene YPR048W, cells incubated two hours with the chemical substance", "value": 1.0}, {"measurement": "The level of expressed mRNA in the presence of chemical substance/The level of expressed mRNA in the absence of chemical substance", "setting": "yeast gene YPR184W, cells incubated two hours with the chemical substance", "value": 3.6}]}]}
